Results: publication PMC5700813, “A recombinant BBSome core complex and how it interacts with ciliary cargo” (eLife, 2017)
“Also recorded” adds a separate entry of the source. Ends that are not written are not given here. Peptide text beside a SMILES is read from it.

The molecules below were run on T1, core BBSome (BBS1,4,5,8,9,18) (assay: Fluorescence polarization binding of fluorescently labeled peptides to the core BBSome). Conditions: not given.
T1 construct: His-tag; made in house; host or cells: Hi5 insect cells (baculovirus)
Design: species or system human
Excerpt: Our microarray data indicated multiple closely spaced binding epitopes in several cases. Where possible, we combined those epitopes into a single fluorescent peptide with up to 37 residues length to more fully reflect the binding site/motif. […] Cargo binding to the core BBSome with fluorescence polarization, measured by using fluorescently labeled peptides and the purified core BBSome. […] All peptides were N-terminally labeled with fluorescein, with an exception of a C-terminally TMR-labeled SSTR3 CT1 peptide (orange squares) that was used as a control to exclude nonspecific binding events due to the used fluorophore. […] (Data points exceeding this mark might indicate secondary binding events at high BBSome concentrations). (C) Fluorescent peptides from the C-terminus of Smo (Smo CT1-4) and a truncated Smoothened construct (Smo […]-[…]) were analyzed as described above. (D) The peptide SSTR3 CT2 that bound with highest affinity to the core BBSome was used as a template for the design and analysis of mutant peptides (SSTR3 CT3-9) with substitutions of one or multiple residues as indicated. Polarization experiments were performed as described above and dissociation constants (KD) are presented as ratios to the KD of the wild type peptide as a bar diagram. (E) Bar diagram of the relative affinities of SmoCT1 and CT3 relative to SmoCT4, as determined in C, and of mutant Smo CT4 peptides with substitutions as indicated. […] Cargo binding to the core BBSome. […] Core BBSome was added at the indicated concentrations and the increase in fluorescence polarization was monitored as a measure for the peptides binding to the protein complex. […] Mutational analysis of the BBSome binding peptides. […] The peptides SSTR3 CT2 (A) and of Smo CT4 (B) that bound with highest affinity to the core BBSome were used as templates for the design of mutant peptides with one or multiple aromatic/basic residue motifs changed to alanines as summarized in Table 1. Core BBSome was added at the indicated concentrations and the increase in fluorescence polarization was monitored as a measure for the peptides binding to the protein complex. […] Fluorescently labeled peptides were purchased from Proteogenix (Proteogenix SAS, France). Fluorescein-labels are located N-terminally to the peptide sequence and TAMRA at the C-terminal side. Fluorescence polarization experiments were performed using a Fluoromax-4 spectrophotometer (HORIBA Jobin Yvon, Germany) or a Safire two multimode plate reader (Tecan, Switzerland). Fluoresceine-labeled samples were measured with excitation/emission wavelengths of λEx = 490 nm and λEm = 520 nm with a bandwidth of 7 nm on the Fluoromax-4. […] Sample volumes were 20 μl in a 1,5 × 1,5 mm cuvette (Hellma Analytics, Germany) for the Fluoromax-4 and 4.5 μl in a 384 well low-binding plate (Corning, Germany). Data analysis was done with the Origin 9.0 program suite (Originlab, Northampton, MA). The polarization curves were fit against the function FI = Fmin […] Fmax corresponding to the fluorescence polarization signal and the signal of unbound and completely saturated fluorescent molecule E with interaction partner L, respectively. The concentrations of molecule E are indicated in the corresponding figure legends, and the calculated dissociation constants KD are listed in Table 1.

T1 sequence (Q8NFJ9 whole entry, stated change not applied): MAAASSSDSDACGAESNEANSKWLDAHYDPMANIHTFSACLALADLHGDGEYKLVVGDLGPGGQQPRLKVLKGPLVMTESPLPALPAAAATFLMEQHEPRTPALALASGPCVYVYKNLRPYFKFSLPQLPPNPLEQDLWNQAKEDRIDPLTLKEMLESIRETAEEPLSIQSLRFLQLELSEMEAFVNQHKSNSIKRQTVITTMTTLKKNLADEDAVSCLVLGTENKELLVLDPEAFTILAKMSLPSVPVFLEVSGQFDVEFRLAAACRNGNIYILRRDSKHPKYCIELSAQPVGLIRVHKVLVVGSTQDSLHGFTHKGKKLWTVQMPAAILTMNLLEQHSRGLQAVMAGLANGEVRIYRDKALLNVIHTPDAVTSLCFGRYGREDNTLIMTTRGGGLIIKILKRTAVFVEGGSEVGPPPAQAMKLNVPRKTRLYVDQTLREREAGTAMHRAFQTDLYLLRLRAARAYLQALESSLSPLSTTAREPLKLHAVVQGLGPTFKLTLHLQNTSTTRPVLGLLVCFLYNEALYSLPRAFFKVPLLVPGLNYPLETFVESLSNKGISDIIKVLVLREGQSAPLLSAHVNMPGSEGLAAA
T1 sequence (Q96RK4 whole entry, stated change not applied, further chain): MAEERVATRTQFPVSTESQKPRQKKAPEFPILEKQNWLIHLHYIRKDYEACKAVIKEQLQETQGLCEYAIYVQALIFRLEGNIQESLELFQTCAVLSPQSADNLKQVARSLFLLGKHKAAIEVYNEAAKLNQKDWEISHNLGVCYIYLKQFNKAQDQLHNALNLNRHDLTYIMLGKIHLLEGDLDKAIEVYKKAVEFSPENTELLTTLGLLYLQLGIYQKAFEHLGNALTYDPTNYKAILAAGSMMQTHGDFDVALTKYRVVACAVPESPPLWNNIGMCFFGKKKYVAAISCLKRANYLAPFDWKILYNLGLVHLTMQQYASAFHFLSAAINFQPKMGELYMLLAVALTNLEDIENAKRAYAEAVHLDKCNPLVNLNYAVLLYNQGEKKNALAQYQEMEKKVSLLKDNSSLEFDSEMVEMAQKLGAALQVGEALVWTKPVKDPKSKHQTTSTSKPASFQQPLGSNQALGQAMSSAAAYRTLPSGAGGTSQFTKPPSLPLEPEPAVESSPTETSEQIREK
T1 sequence (Q8N3I7 whole entry, stated change not applied, further chain): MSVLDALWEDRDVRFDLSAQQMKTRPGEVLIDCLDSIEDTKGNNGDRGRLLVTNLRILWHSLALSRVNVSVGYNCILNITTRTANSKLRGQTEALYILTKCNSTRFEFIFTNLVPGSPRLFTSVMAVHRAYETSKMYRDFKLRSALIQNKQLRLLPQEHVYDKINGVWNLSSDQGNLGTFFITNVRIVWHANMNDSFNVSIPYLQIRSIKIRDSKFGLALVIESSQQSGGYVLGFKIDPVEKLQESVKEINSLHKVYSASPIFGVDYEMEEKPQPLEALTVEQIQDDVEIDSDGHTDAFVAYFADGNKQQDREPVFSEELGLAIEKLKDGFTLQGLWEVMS
T1 sequence (Q8TAM2 with tags, fused parts or gaps isoform Q8TAM2-4 DEL39-48, further chain): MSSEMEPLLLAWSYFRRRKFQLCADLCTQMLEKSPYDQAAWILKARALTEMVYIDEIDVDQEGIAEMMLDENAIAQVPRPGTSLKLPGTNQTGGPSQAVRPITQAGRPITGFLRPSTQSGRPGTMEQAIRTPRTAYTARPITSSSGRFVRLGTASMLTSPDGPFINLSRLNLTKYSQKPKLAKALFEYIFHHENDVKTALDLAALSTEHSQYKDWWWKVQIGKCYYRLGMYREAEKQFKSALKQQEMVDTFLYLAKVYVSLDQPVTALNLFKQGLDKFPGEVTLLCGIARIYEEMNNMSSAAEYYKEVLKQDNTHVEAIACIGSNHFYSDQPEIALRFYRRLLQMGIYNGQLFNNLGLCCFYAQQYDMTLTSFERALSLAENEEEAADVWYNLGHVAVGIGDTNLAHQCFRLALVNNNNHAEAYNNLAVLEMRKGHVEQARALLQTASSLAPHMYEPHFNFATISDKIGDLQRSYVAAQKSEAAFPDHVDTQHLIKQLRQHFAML
T1 sequence (Q3SYG4 whole entry, stated change not applied, further chain): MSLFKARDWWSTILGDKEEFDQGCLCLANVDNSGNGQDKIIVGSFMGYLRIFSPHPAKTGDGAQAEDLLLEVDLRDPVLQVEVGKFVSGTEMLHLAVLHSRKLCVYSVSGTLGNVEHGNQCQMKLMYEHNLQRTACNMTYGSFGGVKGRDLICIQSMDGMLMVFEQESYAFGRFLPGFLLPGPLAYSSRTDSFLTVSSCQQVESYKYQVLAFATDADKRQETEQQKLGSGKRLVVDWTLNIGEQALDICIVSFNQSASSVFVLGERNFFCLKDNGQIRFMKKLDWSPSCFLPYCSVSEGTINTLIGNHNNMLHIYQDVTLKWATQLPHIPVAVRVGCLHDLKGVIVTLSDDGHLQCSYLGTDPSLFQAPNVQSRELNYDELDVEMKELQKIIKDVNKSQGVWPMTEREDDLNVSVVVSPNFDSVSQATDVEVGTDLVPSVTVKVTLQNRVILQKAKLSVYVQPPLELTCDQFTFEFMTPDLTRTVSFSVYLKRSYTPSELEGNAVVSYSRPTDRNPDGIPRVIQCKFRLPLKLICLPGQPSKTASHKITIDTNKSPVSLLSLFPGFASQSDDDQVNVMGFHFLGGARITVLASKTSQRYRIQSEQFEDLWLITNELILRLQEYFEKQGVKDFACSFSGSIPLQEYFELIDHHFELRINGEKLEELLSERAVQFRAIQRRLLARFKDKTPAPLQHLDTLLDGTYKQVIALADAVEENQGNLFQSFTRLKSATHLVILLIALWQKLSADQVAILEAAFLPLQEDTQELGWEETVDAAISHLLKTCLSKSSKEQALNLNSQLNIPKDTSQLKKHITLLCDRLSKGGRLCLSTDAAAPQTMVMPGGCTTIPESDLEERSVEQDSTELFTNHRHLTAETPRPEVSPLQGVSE
T1 sequence (A8MTZ0 whole entry partner): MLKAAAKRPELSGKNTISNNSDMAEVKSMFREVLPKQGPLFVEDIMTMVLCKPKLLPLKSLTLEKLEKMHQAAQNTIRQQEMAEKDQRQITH

Row | Molecule | binding to core BBSome (result in words)
1 | KRIKKSKMIAKAFSK [Smo CT2] | only weak interaction

Same assay, conditions: N-terminally fluorescein-labeled peptide 0.1–1 µM titrated with purified core BBSome, fitted to binding curve

Row | Molecule | Kd
2 | TLLIAARTAARLTGQSDDE [Smo CT7] | 14.3 µM

Same assay, conditions: N-terminally fluorescein-labeled peptide 0.1–1 µM titrated with purified core BBSome, fitted to binding curve, read-out: KD (converted)

Row | Molecule | Kd
3 | GFLSYRFKQGAARVLLRPSRRVRS [SSTR3 CT5] | 1.5 µM
4 | GFLSYRFKQGFRRVLLRPSRRVRS [SSTR3 CT2] | 0.11 µM
5 | GFLSAAAAQGAARVLLRPSRRVRS [SSTR3 CT8] | 11 µM
6 | GFLSAAAAQGFRRVLLRPSRRVRS [SSTR3 CT7] | 1 µM
7 | VTARTVPGGGFGGRRGSRTLVS [GPR161 CT2, N-terminally fluorescein-labeled peptide from the C-terminal region of GPR161] | > 100 µM
8 | NKTVRKELLGMCFGDRYYREPFVQRQR [GPR161 CT1] | 67.4 ± 7.3 µM
9 | FIFRVARVKARKVHCG [GPR161 3ICL] | 6.3 ± 1.5 µM
10 | GRGSAAARSRYTCRLQQHDRGRRQ [NMU 3ICL2, N-terminally fluorescein-labeled peptide from the third intracellular loop of NMU-R1] | > 100 µM
11 | TLLIWRRTWCRLTGQ [Smo CT1] | 1.8 ± 0.5 µM
12 | TLLIWRRTAARLTGQSDDE [Smo CT6] | 12.5 µM
13 | TLLIWRRTWCRLTGQSDDE [Smo CT4] | 1.1 µM
14 | TLLIAARTWCRLTGQSDDE [Smo CT5] | 9.7 µM
15 | RFKQGFRRVLLRPSR [SSTR3 CT1] | 22.1 ± 1.4 µM
16 | GFLSAAFKQGFRRVLLRPSRRVRS [SSTR3 CT3] | 1.1 µM
17 | GFLSYRAAQGFRRVLLRPSRRVRS [SSTR3 CT4] | 0.4 µM
18 | KRLGRKKKRRKRKKE [Smo CT8] | 6.8 µM
19 | RILQRMTSSVAPASQRSIRLRTKRVTRT [MCH 3ICL] | 68.8 ± 11.3 µM
20 | GFLSYRFKQGFRRVLLRPSEEVES [SSTR3 CT9] | 4.7 µM
21 | KRIKKSKMIAKAFSK [Smo CT2] | > 100 µM
22 | VKVRSAGRRVWAPSCQRRRRSERRVTRM [SSTR3 3ICL] | 12.8 ± 1.07 µM
23 | LLIGLRLRRERLLLMQEAKGRG [NMU 3ICL1] | 18.1 ± 1.6 µM
24 | CC(C)C[C@H](NC(=O)[C@H](C)NC(=O)[C@H](CCCNC(=N)N)NC(=O)[C@H](CCCCN)NC(=O)[C@H](Cc1ccccc1)NC(=O)[C@H](CC(=O)O)NC(=O)[C@@H](N)CCCNC(=N)N)C(=O)NCC(=O)N[C@@H](CCCNC(=N)N)C(=O)N[C@@H](Cc1ccccc1)C(=O)N[C@@H](CC(C)C)C(=O)N1CCC[C@H]1C(=O)N[C@@H](CS)C(=O)N1CCC[C@H]1C(=O)N[C@@H](CCCNC(=N)N)C(=O)N[C@@H](CS)C(=O)N1CCC[C@H]1C(=O)N[C@@H](CCCNC(=N)N)C(=O)N[C@@H](CCC(=O)O)C(=O)N[C@@H](CCCNC(=N)N)C(=O)O [5HT6 CT] (H-RDFKRALGRFLPCPRCPRER-OH) | 44.2 ± 10.9 µM
25 | GFLSAAFKQGAARVLLRPSRRVRS [SSTR3 CT6] | 4.5 µM
26 | TLLIWRRTWCRLTGQSDDEPKRIKKSKMIAKAFSKRH [Smo CT3] | 1.4 µM

Each molecule was assayed on core BBSome (assay: Pulldown of core BBSome with immobilized bait on Streptactin beads). Conditions: 7.5 fold molar excess of bait immobilized to Streptactin-coupled Sepharose beads.
Format: binding, human
Excerpt: From previous data, BBS1 seems to be the BBSome subunit most relevant for cargo recognition and Arl6 binding. We first tested the binding of Arl6 to the BBSome core complex. […] To test whether the core BBSome can recognize known BBSome cargo proteins, we generated a truncated (residues R546-L665) version of the Smo receptor, which contains a ciliary targeting motif predicted to interact with the BBSome ([Zhang et al., 2012a]; [Seo et al., 2011]; [Corbit et al., 2005]). In pulldown experiments as described above (Figure 3), the binding was clearly detectable, but considerably weaker than that of Arl6•GppNHp. In fluorescence polarization experiments (see below), we determined the affinity for a fluoresceine-labeled version of this Smo fragment to be 36.1 ± 3.9 µM.
Figure 3. Pulldown of core BBSome with immobilized Arl6 and Smoothened domain R546-L665. Purified core BBSome samples were pulled down by a 7.5 fold molar excess of Arl6•GDP, Arl6•GppNHp or Smo(R546-L665) immobilized to Streptactin-coupled Sepharose beads. […] Smo(R546-L665) bound weaker, but still captured >2% of the BBSome sample. This was approximated by a comparison of the 1:50 diluted Arl6•GppNHp elution with the undiluted Smo(R546-L665) elution in a Flag-blot against Flag-BBS8 from the BBSome core complex.
Pulldown assays were performed using 20 µl Strep-Tactin Superflow high capacity resin (IBA, Germany) per assay equilibrated with pulldown buffer (50 mM Hepes pH 8.0, 150 mM NaCl, 5 mM MgCl2, 5 mM ß-ME and 0.05% DDM). Smo(R546-L665, N-terminal Strep-tag) and Arl6 (residues 17–186, Q73L, C-terminal Strep-tag, with the nucleotide exchanged to either GDP or GppNHp) was immobilized as the bait, and the 6mer BBSome core complex served as the prey (The dual-Strep-tag on BBS18 within the complex was completely removed by Prescission protease cleavage for this experiment). 35 µg of the bait proteins were incubated with the beads in 1 ml pulldown buffer at 4°C for 1 hr, and the unbound protein was washed away with 3 × 1 ml pulldown buffer. […]

Row | Molecule | pulldown of core BBSome (result in words)
27 | Arl6•GppNHp: Arl6 (residues 17–186, Q73L, C-terminal Strep-tag) with the nucleotide exchanged to GppNHp (protein, left off: Strep-tag, C-terminal, kept, Arl6 (residues 17–186, Q73L, C-terminal Strep-tag) with the nucleotide exchanged to GppNHp) EVHVLCLGLDNSGKTTIINKLKPSNAQSQNILPTIGFSIEKFKSSSLSFTVFDMSGLGRYRNLWEHYYKEGQAIIFVIDSSDRLRMVVAKEELDTLLNHPDIKHRRIPILFFANKMDLRDAVTSVKVSQLLCLENIKDKPWHICASDAIKGEGLQEGVDWLQDQIQTVKT | precipitated the major part of the BBSome
28 | Arl6•GDP: Arl6 (residues 17–186, Q73L, C-terminal Strep-tag) with the nucleotide exchanged to GDP (protein, left off: Strep-tag, C-terminal, kept, Arl6 (residues 17–186, Q73L, C-terminal Strep-tag) with the nucleotide exchanged to GDP) EVHVLCLGLDNSGKTTIINKLKPSNAQSQNILPTIGFSIEKFKSSSLSFTVFDMSGLGRYRNLWEHYYKEGQAIIFVIDSSDRLRMVVAKEELDTLLNHPDIKHRRIPILFFANKMDLRDAVTSVKVSQLLCLENIKDKPWHICASDAIKGEGLQEGVDWLQDQIQTVKT | no detectable affinity; also recorded: no interaction

Same assay, conditions: 7.5 fold molar excess of bait immobilized to Streptactin-coupled Sepharose beads; listed as Arl6•GppNHP

Row | Molecule | pulldown of core BBSome (result in words)
29 | Arl6•GppNHp: Arl6 (residues 17–186, Q73L, C-terminal Strep-tag) with the nucleotide exchanged to GppNHp (protein, left off: Strep-tag, C-terminal, kept, Arl6 (residues 17–186, Q73L, C-terminal Strep-tag) with the nucleotide exchanged to GppNHp) EVHVLCLGLDNSGKTTIINKLKPSNAQSQNILPTIGFSIEKFKSSSLSFTVFDMSGLGRYRNLWEHYYKEGQAIIFVIDSSDRLRMVVAKEELDTLLNHPDIKHRRIPILFFANKMDLRDAVTSVKVSQLLCLENIKDKPWHICASDAIKGEGLQEGVDWLQDQIQTVKT | captured most of the BBSome sample
